Assay results reported in patent US20220047567A1, “METHODS FOR THE TREATMENT OF NEUROFIBROMATOSIS” (INSERM (INSTITUT NATIONAL DE LA SANTÉ ET DE LA RECHERCHE …, priority 2018, published 2022).
“Also recorded” adds a separate entry of the source.

Key:
[1] = tested on: PIK3CA pathway (phosphorylation of AKT and S6RP) in NF1−/− cells; assay: Western blot of AKT and S6RP phosphorylation in immortalized NF1−/− cells; assay type: cell-based; settings: after 12 h of exposure
Excerpt: (§1) FIG. 1: NF1+/+ and NF1−/− cells were exposed to either DMSO, BYL719 at different concentrations […], selumetinib at different concentrations (1 and 10 mmol·L−1) or a combination of BYL719 1 mmol·L−1 and selumetinib 10 mmol·L−1 or BYL719 1 mmol·L−1 and selumetinib 10 mmol·L−1 and IPA3. […] The addition of BYL719 to either selumetinib or selumetinib and IPA3 increases cells apoptosis. All data are shown as the means±s.e.m. ANOVA followed by Tukey-Kramer test. White column: NF1+/+, black column: NF1−/−.
(§2) Inventors first checked in immortalized NF1−/− cells if the PIK3CA pathway was recruited (FIGS. 1A, 1B and 1C). […] They then treated the cells with BYL719. […] They then exposed the NF1−/− cells to different dose of selumetinib, a MAP kinase inhibitor, drug that gave encouraging results in some patients with neurofibromatosis.

[2] = tested on: NF1−/− cells; assay: Apoptosis assessed by PARP cleavage in NF1−/− cells; assay type: cell-based; settings: different doses, FIG. 1C
Excerpt: as §1, §2

## Cc1nc(NC(=O)N2CCC[C@H]2C(N)=O)sc1-c1ccnc(C(C)(C)C(F)(F)F)c1 [BYL719]
[1]; FIG. 1A
  phosphorylation of AKT: efficiently blocks; also recorded: efficiently blocking
[1]; FIG. 1B
  phosphorylation of S6RP: efficiently blocks; also recorded: efficiently blocking
[2]
  apoptosis as assessed by PARP cleavage: induces apoptosis; also recorded: increased apoptosis as assessed by PARP cleavage in a dose dependent manner
